According to patent publication US8557805B2, “Fused ring compound and use thereof” (Takeda Pharmaceutical Company Limited, priority 2008, dated 2013):

Legend:
[1] = target: T1, human liver GK (GST-hLGK1) (Homo sapiens, UniProt P35557); assay: Determination of GK activity value (Mant-ATP to Mant-ADP conversion, capillary electrophoresis); type: biochemical; conditions: reaction started with 25 mM D-glucose solution, 37° C., 60 min, concentration at midpoint between maximum activity value and control group activity value
T1 construct: with a BamHI site added to immediately before the initiation codon; made in house; host or cells: Escherichia coli BL21 (Stratagene), plasmid pGEX6P-2/hLGK1
T1 sequence (P35557 1-464 isoform P35557-3): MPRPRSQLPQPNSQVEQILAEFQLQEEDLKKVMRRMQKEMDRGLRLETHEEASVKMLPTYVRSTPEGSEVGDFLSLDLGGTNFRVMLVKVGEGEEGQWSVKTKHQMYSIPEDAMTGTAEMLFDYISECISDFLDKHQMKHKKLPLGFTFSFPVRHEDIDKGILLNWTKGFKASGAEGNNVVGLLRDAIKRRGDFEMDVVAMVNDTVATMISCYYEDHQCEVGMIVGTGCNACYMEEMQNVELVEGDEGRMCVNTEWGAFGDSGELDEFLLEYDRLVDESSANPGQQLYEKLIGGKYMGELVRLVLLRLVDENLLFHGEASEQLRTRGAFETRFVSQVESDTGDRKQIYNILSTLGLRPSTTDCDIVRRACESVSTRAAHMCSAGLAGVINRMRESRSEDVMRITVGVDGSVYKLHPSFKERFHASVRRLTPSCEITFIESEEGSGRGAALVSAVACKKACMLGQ
Protocol: Plasmid DNA to be used for the expression of a protein (GST-hLGK1) containing GST (Glutathione S-transferase) added to the amino terminal of human liver GK in Escherichia coli was prepared as follows.
First, PCR was performed using human liver cDNA (Marathon Ready cDNA, Clontech Laboratories, Inc.) as a template and two kinds of synthetic DNAs (5′-[…]-3′ (SEQ ID NO: 1) and 5′-[…]-3′ (SEQ ID NO: 2)), and the obtained DNA fragment was closed using a TOPO TA Cloning Kit (Invitrogen Corporation). PCR was performed using the obtained plasmid DNA as a template and a synthetic DNA (5′-[…] CAGAG-3′ (SEQ ID NO: 3)) with a BamHI site added to immediately before the initiation codon, and a synthetic DNA (5′-[…]-3′ (SEQ ID NO: 4)) with an EcoRI site added to immediately after the stop codon. The obtained DNA fragment was subcloned to pGEX6P-2 (Amersham Biosciences K.K.) cleaved with BamHI and EcoRI to give a plasmid (pGEX6P-2/hLGK1) for expression of human liver GK.
BL21 strain (Stratagene) transformed with pGEX6P-2/hLGK1 obtained in (1) was cultured with shaking at 37° C. for 14 hr in a 200 ml Erlenmeyer flask containing 50 ml of 100 μg/ml ampicillin-containing LB medium. The culture medium (25 ml) was diluted with 225 ml of 100 μg/ml ampicillin-containing LB medium, and further cultured with shaking at 37° C. for 1 hr in a 1 L Erlenmeyer flask. After culture, the Erlenmeyer flask was cooled on ice, 125 μL of 100 mM isopropyl-thio-β-D-galactopyranoside (IPTG) was added (final concentration 50 μM), and cultured at 17° C. for 20 hr. The culture medium was centrifuged, and the obtained fungus was disrupted by ultrasonication. The object protein (GST-hLGK1) was purified from the supernatant using Glutathione Sepharose 4B (Amersham Biosciences K.K.).
A solution (5 μL) of test compound in 50% dimethyl sulfoxide was added to each well of 384 well black plate (Nalge Nunc International K.K.). Then, a solution (35 μL) obtained by diluting GST-hLGK1 obtained in (2) with measurement buffer (containing 50 mM HEPES (pH 7.4), 200 mM KCl, 5 mM MgCl2, 2.5 mM DTT and 50 μM 2′-(or-3′)-O—(N-methylanthraniloyl)adenosine 5′-triphosphate (Mant-ATP) (Jena Bioscience GmbH)) to 6 μg/mL was added to each well.
Each well was stood at 37° C. for 10 min, and 25 mM D-glucose solution (10 μL) was added to start the reaction.
Each well after the reaction was stood at 37° C. for 60 min, and the reaction was quenched by adding 25 μL of a quenching solution (containing 200 mM HEPES (pH 7.4), 20 mM MgCl2, 200 mM EDTA, 0.03% Triton-X 100, 0.3% Coating 3 reagent (Caliper Life Sciences, Inc.)).
2′-(or -3′)-O—(N-methylanthraniloyl)adenosine 5′-triphosphate (Mant-ATP, substrate) and Mant-ADP (reaction resultant product) were separated from each well after the reaction by a microchip type capillary electrophoresis apparatus 250 HTS (Caliper Life Sciences, Inc.). The reaction rate [(reaction resultant product peak height)/(reaction resultant product peak height+substrate peak height)×100(%)] was calculated from the ratio of the substrate peak height and reaction resultant product peak height obtained by fluorescence detection (excitation wavelength 355 nm, measurement wavelength 460 nm) and used as the index of GK activity.
3.5 As a control group, the reaction rate was calculated in the same manner as above except that “solution in 50% dimethyl sulfoxide (without test compound)” was used instead of “solution of test compound in 50% dimethyl sulfoxide”.
A concentration dependency curve of the test compound was drawn with the percentage obtained by dividing the reaction rate of the well added with the test compound (test compound addition group) by the reaction rate of the control group was taken as the GK activity value of the test compound, and the concentration of the test compound at the midpoint between the maximum activity value of the test compound addition group and the control group activity value is shown as EC50 value.

melting point | EC50 [1] | SMILES
183 to 184 °C | 33 nM | CNC(=O)CC1CN=C(c2cc3cc(Oc4ccc(S(C)(=O)=O)nc4)cc(C)c3[nH]2)S1 (centres unmarked) [Example 73, 2-[2-(7-Methyl-5-{[6-(methylsulfonyl)pyridin-3-yl]oxy}-1H-indol-2-yl)-4,5-dihydro-1,3-thiazol-5-yl]-N-methylacetamide]
190 to 191 °C | 16 nM | CCc1cc(Oc2ccc(S(C)(=O)=O)nc2)cc2cc(C3=NCC(CC(N)=O)S3)[nH]c12 (centres unmarked) [Example 61, 2-[2-(7-Ethyl-5-{[6-(methylsulfonyl)pyridin-3-yl]oxy}-1H-indol-2-yl)-4,5-dihydro-1,3-thiazol-5-yl]acetamide]
157 to 160 °C | 48 nM | Cc1cc(Oc2ccc(S(C)(=O)=O)nc2)cc2cc(C3=NCC(CC(=O)N4CC[S+]([O-])CC4)S3)[nH]c12 (centres unmarked) [Example 81, 7-Methyl-5-{[6-(methylsulfonyl)pyridin-3-yl]oxy}-2-{5-[2-(1-oxidothiomorpholin-4-yl)-2-oxoethyl]-4,5-dihydro-1,3-thiazol-2-yl}-1H-indole]
234 to 235 °C | 73 nM | CS(=O)(=O)c1ccc(Oc2ccc3[nH]c(C4=NCC(CC(=O)NCC(F)(F)F)S4)cc3c2)cn1 (centres unmarked) [Example 56, 2-[2-(5-{[6-(Methylsulfonyl)pyridin-3-yl]oxy}-1H-indol-2-yl)-4,5-dihydro-1,3-thiazol-5-yl]-N-(2,2,2-trifluoroethyl)acetamide]
202 to 203 °C | 29 nM | Cc1cc(Oc2ccc(S(C)(=O)=O)nc2)cc2cc(C3=NCC(CC(N)=O)S3)[nH]c12 (centres unmarked) [Example 72, 2-[2-(7-Methyl-5-{[6-(methylsulfonyl)pyridin-3-yl]oxy}-1H-indol-2-yl)-4,5-dihydro-1,3-thiazol-5-yl]acetamide]
167 to 168 °C | 28 nM | CS(=O)(=O)c1ccc(Oc2ccc3[nH]c(C4=NCC(CC(=O)N5CCOCC5)S4)cc3c2)cn1 (single isomer, unassigned) [Example 69, 5-{[6-(Methylsulfonyl)pyridin-3-yl]oxy}-2-[5-(2-morpholin-4-yl-2-oxoethyl)-4,5-dihydro-1,3-thiazol-2-yl]-1H-indole]
152 to 154 °C | 54 nM | Cc1cc(Oc2ccc(S(C)(=O)=O)nc2)cc2cc(C3=NCC(CC(=O)N4CCOCC4)S3)[nH]c12 (centres unmarked) [Example 80, 7-Methyl-5-{[6-(methylsulfonyl)pyridin-3-yl]oxy}-2-[5-(2-morpholin-4-yl-2-oxoethyl)-4,5-dihydro-1,3-thiazol-2-yl]-1H-indole]

Second part, the molecule before the results:

SMILES | melting point | EC50 [1]
CCNC(=O)CC1CN=C(c2cc3cc(Oc4ccc(S(C)(=O)=O)nc4)cc(OC4CCOCC4)c3[nH]2)S1 (centres unmarked) [Example 42, N-Ethyl-2-{2-[5-{[6-(methylsulfonyl)pyridin-3-yl]oxy}-7-(tetrahydro-2H-pyran-4-yloxy)-1H-indol-2-yl]-4,5-dihydro-1,3-thiazol-5-yl}acetamide] | 197 to 198 °C | 21 nM
CNC(=O)CC1CN=C(c2cc3cc(Oc4ccc(S(C)(=O)=O)cn4)cc(OC4CCOCC4)c3[nH]2)S1 (centres unmarked) [Example 17, N-Methyl-2-{2-[5-{[5-(methylsulfonyl)pyridin-2-yl]oxy}-7-(tetrahydro-2H-pyran-4-yloxy)-1H-indol-2-yl]-4,5-dihydro-1,3-thiazol-5-yl}acetamide] | 170 to 172 °C | 90 nM
CC(C)(O)CC1CN=C(c2cc3cc(Oc4ccc(S(C)(=O)=O)cn4)cc(OC4CCOCC4)c3[nH]2)S1 (centres unmarked) [Example 14, 2-Methyl-1-{2-[5-{[5-(methylsulfonyl)pyridin-2-yl]oxy}-7-(tetrahydro-2H-pyran-4-yloxy)-1H-indol-2-yl]-4,5-dihydro-1,3-thiazol-5-yl}propan-2-ol] | 129 to 130 °C | 61 nM
COCc1ccc(Oc2cc(OC3CCOCC3)c3[nH]c(C4=NCC(CC(C)(C)O)S4)cc3c2)cn1 (centres unmarked) [Example 8, 1-{2-[5-{[6-(Methoxymethyl)pyridin-3-yl]oxy}-7-(tetrahydro-2H-pyran-4-yloxy)-1H-indol-2-yl]-4,5-dihydro-1,3-thiazol-5-yl}-2-methylpropan-2-ol] | 108 to 110 °C | 18 nM
CNC(=O)CC1CN=C(c2cc3cc(Oc4ccc(S(C)(=O)=O)nc4)ccc3[nH]2)S1 (centres unmarked) [Example 53, N-Methyl-2-[2-(5-{[6-(methylsulfonyl)pyridin-3-yl]oxy}-1H-indol-2-yl)-4,5-dihydro-1,3-thiazol-5-yl]acetamide] | 150 to 152 °C | 130 nM
CS(=O)(=O)c1ccc(Oc2cc(OC3CCOCC3)c3[nH]c(C4=NCC(CCO)S4)cc3c2)cc1 (centres unmarked) [Example 2, 2-(2-{5-[4-(Methylsulfonyl)phenoxy]-7-(tetrahydro-2H-pyran-4-yloxy)-1H-indol-2-yl}-4,5-dihydro-1,3-thiazol-5-yl)ethanol] | 116 to 117 °C | 18 nM
